Test results reported in US10493035B2, “Tablets comprising 2-hydroxy-6-((2-(1-isopropyl-1H-pyrazol-5-yl)pyridin-3-yl)methoxy)benzaldehyde” (Global Blood Therapeutics, Inc., priority 2016, dated 2019).
Each block holds one compound with its values, some of them ahead of it.

Columns and labels:
[1] = Physicochemical and biopharmaceutical properties of Compound 1 and its crystal forms
Procedure: Compound 1 is a BCS II compound, where its solubility is the primary biopharmaceutical factor limiting absorption. Compound 1 exists in one form as an ansolvate crystalline form characterized by at least two, three or four X-ray powder diffraction peaks (Cu Kα radiation) selected from 13.37°, 14.37°, 19.95° and 23.92° 2θ (each ±0.2° 2θ) (see, e.g., PCT application Publication No. WO 2015/120133 A1, incorporated herein by reference in its entirety and for all purposes). This form can hereinafter also be referred to as Form II. The physicochemical properties of Compound 1, including its Form II, are not as conducive (compared to other drug substances for formulation) to making a high dosage form of Compound 1. […] The bulk density of Form II of Compound 1 is considered low and its flowability considered poor. Upon milling, the flowability decreases. […] Form II of Compound 1 is also prone to sticking to steel surfaces, such as in processing equipment for tablet manufacture.
In addition, another ansolvate crystalline form of Compound 1, referred to as Form N, is known. Form N has an enantiotropic relationship with Form II, with a transition temperature approximately in the range 30-40° C. Thus, under temperatures (e.g. storage) below 40° C., e.g., at 25° C., Compound 1 is more thermodynamically stable as Form II and at temperatures above 40° C., e.g., at 50° C., Compound 1 is more thermodynamically stable as Form N. To design tablets containing Compound 1, the above physicochemical property limitations of Compound 1 and the high dose requirements need to be accommodated while ensuring that the tablets have dissolution properties that lead to a therapeutic effect.

[2] = Compression profile of neat Form II API (hydraulic press, 200 mg compacts); assay type: physicochemical; conditions: for Tablet Hardness / Tablet Thickness: neat API 200 mg
Procedure: The compressibility of crystalline Form II of Compound 1 (“API”) was determined by compressing neat unformulated API at 200 mg scale compressed in a hydraulic press using 5/16th inch diameter, standard concave round tooling. The resulting tablets were measured for thickness using a digital caliper gauge, and for tensile strength using a tablet hardness tester. […] Lots 1a and 2 were directly from the API manufacturing process, but from different API suppliers. Lot 1b was prepared by taking Lot 1a and subjecting it to hammer milling to cause reduction of particle size.

[3] = compression force 2000 lbf, listed as 1a
[4] = compression force 3000 lbf, listed as 1a
[5] = compression force 4000 lbf, listed as 1a
[6] = compression force 2000 lbf, listed as 1b
[7] = compression force 3000 lbf, listed as 1b
[8] = compression force 4000 lbf, listed as 1b
[9] = compression force 2000 lbf, listed as 2
[10] = compression force 3000 lbf, listed as 2
[11] = compression force 4000 lbf, listed as 2

BCS class [1]: BCS II
SMILES: CC(C)n1nccc1-c1ncccc1COc1cccc(O)c1C=O [Compound 1, 2-hydroxy-6-((2-(1-isopropyl-1H-pyrazol-5-yl)pyridin-3-yl)methoxy)benzaldehyde]

Compressibility (in words) ([2]; neat API): relatively incompressible solid | Lipophilicity (in words) [1]: lipophilic | Water solubility (in words) [1]: poorly water soluble
SMILES: CC(C)n1nccc1-c1ncccc1COc1cccc(O)c1C=O [Form II of Compound 1, 2-hydroxy-6-((2-(1-isopropyl-1H-pyrazol-5-yl)pyridin-3-yl)methoxy)benzaldehyde]

Transition temperature of the enantiotropic relationship with Form II [1]: 30-40 °C
SMILES: CC(C)n1nccc1-c1ncccc1COc1cccc(O)c1C=O [Form N, 2-hydroxy-6-((2-(1-isopropyl-1H-pyrazol-5-yl)pyridin-3-yl)methoxy)benzaldehyde]

Tablet Hardness [2, 3]: 1.8 kp | Tablet Thickness [2, 3]: 4.50 mm | Tablet Hardness [2, 4]: 1.5 kp | Tablet Thickness [2, 4]: 4.34 mm | Tablet Hardness [2, 5]: 1.0 kp | Tablet Thickness [2, 5]: 4.35 mm
SMILES: CC(C)n1nccc1-c1ncccc1COc1cccc(O)c1C=O [Lot 1a, 2-hydroxy-6-((2-(1-isopropyl-1H-pyrazol-5-yl)pyridin-3-yl)methoxy)benzaldehyde]

Tablet Hardness [2, 6]: 2.4 kp | Tablet Thickness [2, 6]: 4.55 mm | Tablet Hardness [2, 7]: 1.2 kp | Tablet Thickness [2, 7]: 4.32 mm | Tablet Hardness [2, 8]: 1.5 kp | Tablet Thickness [2, 8]: 4.43 mm
SMILES: CC(C)n1nccc1-c1ncccc1COc1cccc(O)c1C=O [Lot 1b, 2-hydroxy-6-((2-(1-isopropyl-1H-pyrazol-5-yl)pyridin-3-yl)methoxy)benzaldehyde]

Tablet Hardness [2, 9]: 9.0 kp | Tablet Thickness [2, 9]: 4.50 mm | Tablet Hardness [2, 10]: 3.7 kp | Tablet Thickness [2, 10]: 4.27 mm | Tablet Hardness [2, 11]: 3.4 kp | Tablet Thickness [2, 11]: 4.31 mm
SMILES: CC(C)n1nccc1-c1ncccc1COc1cccc(O)c1C=O [Lot 2, 2-hydroxy-6-((2-(1-isopropyl-1H-pyrazol-5-yl)pyridin-3-yl)methoxy)benzaldehyde]
